Target: Sodium-dependent serotonin transporter (Homo sapiens, UniProt P31645)
Assay: Displacement of [3H]5-HT from human SERT

Sodium-dependent serotonin transporter (Homo sapiens, UniProt P31645), sequence (P31645 whole entry): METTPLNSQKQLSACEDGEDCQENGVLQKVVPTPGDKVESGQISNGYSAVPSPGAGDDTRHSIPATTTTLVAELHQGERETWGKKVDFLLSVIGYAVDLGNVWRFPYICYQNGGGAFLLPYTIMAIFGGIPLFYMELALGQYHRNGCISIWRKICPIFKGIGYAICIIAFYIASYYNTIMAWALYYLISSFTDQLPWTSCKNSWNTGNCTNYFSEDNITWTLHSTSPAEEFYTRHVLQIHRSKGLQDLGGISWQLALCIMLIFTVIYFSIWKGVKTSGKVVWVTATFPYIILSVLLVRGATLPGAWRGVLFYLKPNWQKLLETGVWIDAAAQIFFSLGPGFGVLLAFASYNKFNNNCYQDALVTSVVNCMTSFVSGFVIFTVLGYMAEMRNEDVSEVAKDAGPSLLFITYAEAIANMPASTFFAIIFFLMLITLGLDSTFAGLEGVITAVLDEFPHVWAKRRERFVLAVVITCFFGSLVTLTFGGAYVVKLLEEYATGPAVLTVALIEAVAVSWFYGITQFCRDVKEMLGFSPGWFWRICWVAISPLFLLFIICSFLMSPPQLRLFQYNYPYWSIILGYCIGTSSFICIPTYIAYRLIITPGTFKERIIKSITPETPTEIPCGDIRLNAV

Row | IC50 | Compound
1 | 8 nM | CC1CN(c2ccc3ccccc3n2)CCN1CCCCN1C(=O)c2ccccc2C1=O (stereo not drawn)
2 | 50 nM | CC1CN(c2ccc3ccccc3n2)CCN1CCCCN1C(=O)CCCC1=O (stereo not drawn)
3 | 80 nM | CC1CN(c2ccc3ccccc3n2)CCN1CCCN1C(=O)c2ccccc2C1=O (stereo not drawn)

Target: Sodium-dependent serotonin transporter (Rattus norvegicus, UniProt P31652)
Assay: Displacement of [3H]5-HT from SERT in rat cerebral cortex synaptosome membrane
Assay type: tissue-based, Brain

Sodium-dependent serotonin transporter (Rattus norvegicus, UniProt P31652), sequence (P31652 whole entry): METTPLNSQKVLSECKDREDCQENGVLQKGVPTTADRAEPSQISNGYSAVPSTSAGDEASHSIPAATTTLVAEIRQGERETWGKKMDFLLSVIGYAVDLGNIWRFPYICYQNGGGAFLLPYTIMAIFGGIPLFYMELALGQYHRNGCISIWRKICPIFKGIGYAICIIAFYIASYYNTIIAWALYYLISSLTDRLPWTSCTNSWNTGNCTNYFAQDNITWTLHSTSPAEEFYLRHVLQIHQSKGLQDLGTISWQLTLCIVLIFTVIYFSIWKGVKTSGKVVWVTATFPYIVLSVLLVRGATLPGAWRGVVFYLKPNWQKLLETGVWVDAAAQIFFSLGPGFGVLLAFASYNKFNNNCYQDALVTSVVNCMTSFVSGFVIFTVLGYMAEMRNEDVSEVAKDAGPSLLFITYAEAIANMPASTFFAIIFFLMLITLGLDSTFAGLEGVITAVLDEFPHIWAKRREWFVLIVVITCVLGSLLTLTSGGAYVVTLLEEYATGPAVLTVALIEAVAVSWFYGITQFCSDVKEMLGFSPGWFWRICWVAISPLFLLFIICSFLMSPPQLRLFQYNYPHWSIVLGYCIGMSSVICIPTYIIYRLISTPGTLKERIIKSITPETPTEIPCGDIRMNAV

Row | IC50 | Compound
4 | 146 nM | CC1(C)CC(=O)N(CCCCN2CCN(c3ccc4ccccc4n3)CC2)C(=O)C1
5 | 112 nM | O=C1CC2(CCCC2)CC(=O)N1CCCCN1CCN(c2ccc3ccccc3n2)CC1
6 | 95 nM | O=C1c2ccccc2C(=O)N1CCCCN1CCN(c2ccc3ccccc3n2)CC1
7 | 33 nM | CC1CN(c2ccc3ccccc3n2)CCN1CCCCN1C(=O)c2ccccc2C1=O (stereo not drawn)

Row | Compound | IC50
8 | CC1CN(c2ccc3ccccc3n2)CCN1CCCCN1C(=O)CC2(CCCC2)CC1=O (stereo not drawn) | 75 nM

Reference: ChEMBL document CHEMBL1142451, “The molecular interactions of buspirone analogues with the serotonin transporter” (Bioorg Med Chem, 2008)
